Source: patent US12128018B2, “Combination of a selective histone deacetylase 3 (HDAC3) inhibitor and an immunotherapy agent for the treatment of cancer” (KDAc Therapeutics, Inc., priority 2018, dated 2024)

Key:
[1] = tested on: MHC class II (IA-IE) in P388D1 cells; assay: in vitro induction of MHC class II (IA-IE) in P388D1 cells (FACS); assay type: cell-based, murine
Method: (§1) Cell Culture and Compound Treatment for MHC II Induction
(§2) Human and murine tumor cell lines were obtained from the Shanghai Institutes for Biological Sciences (SIBS) or American Type Culture Collection (ATCC) and maintained in a humidified 5% CO2 incubator at 37° C. All of the human cell lines were derived from human B cell lymphomas: OCI-Ly19, OCI-Ly7, OCI-Ly18, RL, SU-DHL6, and MD901. The murine tumor cell lines were of varied origin: CT-26 (colon carcinoma), RENCA (renal cell carcinoma), P388D1 (lymphoblast of monocytes and macrophages), MPC-11 (plasmacytoma, myeloma), L5178 (thymic lymphoma), and J588 (plasmacytoma, myeloma).
(§3) On Day 0, T25 flasks were seeded at the following cell densities:
(§4) On Day 1, cells were treated with I-1 compound diluted in DMSO/PBS (final concentration of DMSO in the media was 0.19%). The cells were treated with I-1 compound for 72 hours. The adherent cells were dissociated with 1 mL/T25 flask of Cell Dissociation buffer (GIBCO) at 37° C. Four mL of culture media was added to each flask, samples were aliquoted FACS analysis. For suspension cells, samples were aliquoted into 50 mL conical tubes for FACS analysis.
FACS Detection of MHC II on Human and Murine Cells (IA/IE on Murine Cells)
Cells were counted to determine cell number and viability with Vi-cell (Beckman). After washing once with 10 mL cold FACS staining buffer (PBS+0.2% BSA), liquid was aspirated and the cells were resuspended in enough cold FACS staining buffer to reach a final cell density of ˜1×10^7 viable cells/mL. 50 μL/well (˜500 k/well) of cells were added to a 96-well u-bottomed plate and the cells were stained as follows, according to manufacturer's instructions: • Sample 1: Unstained • Sample 2: stained with anti MHC II antibody (PE anti-human HLA-DR, Clone: G46-6, Becton Dickinson; PE anti-mouse I-A/I-E, Clone: M5/114.15.2, Becton Dickinson) • Sample 3: stained with isotype control
(§5) Cells were incubated for 1 hour at 4° C., protected from light. […] Samples were analyzed immediately using FACS machine. The data were analyzed with BD Accuri C6 software and FlowJo_V10.

HDAC3 = HDAC3 (Homo sapiens (Human), UniProt O15379); assay: non-trypsin coupled in-vitro HDAC enzymatic endpoint assay (Caliper LabChip EZ-Reader); assay type: biochemical; details: 3 hrs preincubation, Substrate A 2 μM
Chain of HDAC3 (O15379 whole entry, species assumed): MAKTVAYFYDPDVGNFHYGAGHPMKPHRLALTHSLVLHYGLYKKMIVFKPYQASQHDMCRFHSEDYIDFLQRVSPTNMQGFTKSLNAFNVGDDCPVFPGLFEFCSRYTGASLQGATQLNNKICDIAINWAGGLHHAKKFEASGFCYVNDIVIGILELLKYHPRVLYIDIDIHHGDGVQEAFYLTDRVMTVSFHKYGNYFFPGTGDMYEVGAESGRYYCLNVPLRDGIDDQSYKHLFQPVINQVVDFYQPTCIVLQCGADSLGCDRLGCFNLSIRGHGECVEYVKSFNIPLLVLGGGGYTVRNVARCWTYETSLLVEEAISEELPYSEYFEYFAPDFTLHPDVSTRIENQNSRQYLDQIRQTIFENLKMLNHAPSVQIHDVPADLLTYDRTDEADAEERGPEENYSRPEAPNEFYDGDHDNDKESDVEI
Chain of HDAC3 (Q9Y618 395-489 partner, species assumed): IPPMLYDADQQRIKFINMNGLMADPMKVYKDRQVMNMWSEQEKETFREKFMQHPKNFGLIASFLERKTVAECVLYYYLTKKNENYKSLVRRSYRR
Method: (§7) In some experiments, the following non-trypsin coupled in-vitro HDAC enzymatic endpoint assay was used to assay the compounds described herein. Below is a standardized protocol for running HDAC selectivity panel on Caliper LabChip EZ-Reader Instrument.
(§8) Substrate A was prepared as 2 mM in DMSO. Its final concentration in the assay for HDACs 1,2,3,6 is 2 μM.
(§9) LBH was used as quench inhibitor to stop the reaction at the end point.
(§10) The protocol was carried out as follows: • 1. Caliper LabChip and 1 μM Marker (peptide substrate in separation buffer) were prepared for instrument run. • 2. Warm up Caliper HAB buffer to room temperature • 3. […] Add 10 μl 3× solution acetylated substrate to initiate the reaction for 50 minutes. • 5. […] Mix plate • 7. Read plate on EZ Reader instrument. Separate substrate and product peaks by capillary electrophoresis and read fluorescence from both substrate and product. • 8. Run parameters were as follows:

[2] = tested on: MHC class II (IA-IE) in RENCA cells; assay: in vitro induction of MHC class II (IA-IE) in RENCA cells (FACS); assay type: cell-based, murine
Method: as §1, §2, §3
as §4, with “For suspension cells, samples were aliquoted into 50 mL conical tubes for FACS analysis.” left out
(§6) Cells were counted to determine cell number and viability with Vi-cell (Beckman). […]
as §5

HDAC1 = HDAC1 (Homo sapiens (Human), UniProt Q13547); assay: non-trypsin coupled in-vitro HDAC enzymatic endpoint assay (Caliper LabChip EZ-Reader); assay type: biochemical; details: 3 hrs preincubation, Substrate A 2 μM
Chain of HDAC1 (Q13547 whole entry, species assumed): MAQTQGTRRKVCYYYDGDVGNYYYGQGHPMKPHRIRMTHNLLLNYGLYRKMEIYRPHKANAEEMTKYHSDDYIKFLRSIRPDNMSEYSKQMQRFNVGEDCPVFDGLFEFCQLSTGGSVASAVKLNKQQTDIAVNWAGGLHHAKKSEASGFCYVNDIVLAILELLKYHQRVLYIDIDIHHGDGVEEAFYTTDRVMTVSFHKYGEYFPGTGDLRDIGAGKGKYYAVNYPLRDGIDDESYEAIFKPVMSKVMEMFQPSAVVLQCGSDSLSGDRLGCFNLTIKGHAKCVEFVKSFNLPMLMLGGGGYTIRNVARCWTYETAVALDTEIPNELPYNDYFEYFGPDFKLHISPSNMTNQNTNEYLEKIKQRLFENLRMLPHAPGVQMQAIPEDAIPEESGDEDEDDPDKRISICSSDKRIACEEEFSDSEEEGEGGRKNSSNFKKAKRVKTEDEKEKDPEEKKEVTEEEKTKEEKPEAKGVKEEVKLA
Method: as §7, §8, §9, §10

[3] = tested on: MHC Class II expression across multiple cell lines; assay: FACS detection of MHC II on human and murine tumor cell lines; assay type: cell-based; details: 72 hours treatment (FIG. 1)
Method: as §1, §2, §3
as §4, with “For suspension cells, samples were aliquoted into 50 mL conical tubes for FACS analysis.” left out
as §6, §5

[4] = tested on: P388D1 cells and RENCA cells; assay: cytotoxicity, percent of viable cells; assay type: cell-based, murine; details: various concentrations (FIG. 4)
HDAC2 = HDAC2 (Homo sapiens (Human), UniProt Q92769); assay: non-trypsin coupled in-vitro HDAC enzymatic endpoint assay (Caliper LabChip EZ-Reader); assay type: biochemical; details: 3 hrs preincubation, Substrate A 2 μM
Chain of HDAC2 (Q92769 whole entry, species assumed): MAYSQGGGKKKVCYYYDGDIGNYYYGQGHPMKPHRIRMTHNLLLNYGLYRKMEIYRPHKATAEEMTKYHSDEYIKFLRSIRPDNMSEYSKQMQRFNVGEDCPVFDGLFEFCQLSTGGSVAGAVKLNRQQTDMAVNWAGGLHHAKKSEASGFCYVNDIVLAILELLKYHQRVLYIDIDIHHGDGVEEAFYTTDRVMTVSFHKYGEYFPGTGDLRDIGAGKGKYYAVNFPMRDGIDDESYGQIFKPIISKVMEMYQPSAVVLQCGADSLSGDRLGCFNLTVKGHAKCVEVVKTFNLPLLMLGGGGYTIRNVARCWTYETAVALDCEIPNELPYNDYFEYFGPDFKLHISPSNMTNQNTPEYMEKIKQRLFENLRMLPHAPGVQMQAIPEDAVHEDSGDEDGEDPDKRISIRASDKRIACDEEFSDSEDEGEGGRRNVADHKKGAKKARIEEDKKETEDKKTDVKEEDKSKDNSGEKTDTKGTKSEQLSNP
Method: as §7, §8, §9, §10

plasma exposure (PK) = assay type: in vivo; details: FIG. 13
Method: 1) For pharmacokinetics (PK): 2 hrs after the first treatment, satellite time point (Day 11) and after the final time point (Day 14) 100 μl blood was collected from the I-1 treatment groups (3 mice/group), then centrifuged to get about 50 μl plasma for PK analysis.

[5] = tested on: Twenty-six syngeneic cells lines; assay: viability of syngeneic cell lines; assay type: cell-based; details: 10 μM
[6] = tolerability and exposure relative to NOAEL

| SMILES | fold more cells positive for MHC class II (IA-IE) ([1]; 120 nM I-1) | fold more cells positive for MHC class II (IA-IE) ([1]; 3 μM I-1) | IC50 (HDAC3) [nM] | fold more cells positive for MHC class II (IA-IE) ([2]; 1 μM I-1) | fold more cells positive for MHC class II (IA-IE) ([2]; 3 μM I-1) | IC50 (HDAC1) [nM] | increase in MHC Class II expression [3] | cytotoxicity (percent of viable cells) [4] | IC50 (HDAC2) [nM] | plasma exposure (plasma exposure (PK)) | impact on viability [5] | tolerability ([6]; 25 and 50 mg/kg, orally, BID) | tolerated exposures relative to tolerated dose of a clinical HDAC 1,2,3 inhibitor ([6]; FIG. 13) | levels showing efficacy relative to NOAEL (no adverse effect level) ([6]; rat NOAEL, FIG. 13) | MHC class II protein levels (geometric mean MFI) ([1]; various concentrations (FIGS. 14 and 15)) |
| --- | --- | --- | --- | --- | --- | --- | --- | --- | --- | --- | --- | --- | --- | --- | --- |
| CC(=O)Nc1ccc(C(=O)Nc2ccc(F)cc2N)cc1 [Compound I-1] | about 4 × | about 13 × | 61 | about 2 × | about 6 × | 2190 | 20-100% | generally not cytotoxic | 1510 | above K, and below NOAEL | minimal impact on viability | well tolerated | greater than 4 × | below rat NOAEL |  |
| Nc1cc(F)ccc1NC(=O)/C=C/c1cnn(C/C=C/c2ccccc2)c1 [RGFP966, reference compound] |  |  |  |  |  |  |  |  |  |  |  |  |  |  | capable of increasing MHC class II protein levels |
